A value given as a limit tells only on which side of the number the result lay.

This assay deals with T1, androgen receptor (AR) (Homo sapiens, UniProt P10275, T878A).
T1 sequence (P10275 1-920 T878A): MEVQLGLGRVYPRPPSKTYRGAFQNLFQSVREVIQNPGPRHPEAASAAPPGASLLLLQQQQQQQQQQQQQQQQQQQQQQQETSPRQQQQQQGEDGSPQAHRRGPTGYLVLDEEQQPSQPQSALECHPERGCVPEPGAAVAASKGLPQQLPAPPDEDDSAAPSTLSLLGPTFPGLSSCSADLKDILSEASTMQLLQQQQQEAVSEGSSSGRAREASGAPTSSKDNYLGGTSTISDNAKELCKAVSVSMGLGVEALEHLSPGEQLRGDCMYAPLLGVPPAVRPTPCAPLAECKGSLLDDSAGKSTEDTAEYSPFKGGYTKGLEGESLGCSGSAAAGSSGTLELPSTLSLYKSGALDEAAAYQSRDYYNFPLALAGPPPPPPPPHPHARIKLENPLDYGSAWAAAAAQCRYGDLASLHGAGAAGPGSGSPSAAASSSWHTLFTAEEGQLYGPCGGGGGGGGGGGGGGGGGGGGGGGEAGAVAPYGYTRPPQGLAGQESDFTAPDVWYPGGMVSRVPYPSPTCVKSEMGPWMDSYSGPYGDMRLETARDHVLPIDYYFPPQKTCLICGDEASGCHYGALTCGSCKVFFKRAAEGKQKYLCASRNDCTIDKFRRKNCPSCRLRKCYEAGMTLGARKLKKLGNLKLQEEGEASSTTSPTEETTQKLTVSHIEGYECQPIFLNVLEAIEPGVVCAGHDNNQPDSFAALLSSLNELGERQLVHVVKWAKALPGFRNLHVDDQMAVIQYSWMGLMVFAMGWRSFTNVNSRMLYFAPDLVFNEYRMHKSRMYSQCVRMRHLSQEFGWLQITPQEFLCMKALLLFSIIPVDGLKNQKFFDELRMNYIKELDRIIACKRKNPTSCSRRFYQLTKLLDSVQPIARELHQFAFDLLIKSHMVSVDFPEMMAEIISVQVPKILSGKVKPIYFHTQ
Briefly: Androgen-induced PSA (6.1 kb)-luciferase reporter assay in LNCaP cells (R1881 1 nM). Details: endogenous in cells; host or cells: LNCaP. As to conditions: 24 h, read-out: PSA-Luc IC50 Range. It is filed as cell-based. How it is done:
The PSA (6.1 kb)-luciferase reporter contains functional AREs (androgen response elements) to which AR binds in response to androgen to induce luciferase activity. LNCaP cells were transiently transfected with the PSA (6.1 kb)-luciferase reporter for 24 h, and then pretreated with vehicle (DMSO) or indicated concentration of representative compounds for one hour prior to the addition of synthetic androgen, R1881 (1 nM). After 24 h of incubation with R1881, the cells were harvested, and relative luciferase activities were determined (FIG. 1). To determine the IC50, treatments were normalized to vehicle control activity induced by R1881 (Table 2).
Luciferase Assay: Cells were lysed using Passive Lysis Buffer (Promega) and then collected into V-bottom 96-well tissue culture plates. Lysates were centrifuged at 4° C. for 5 minutes at 3000 rpm. To measure luminescence of LNCaP cell lysates the Firefly Luciferase Assay System (Promega) was employed, according to manufacturer's protocol. Relative luminescence units (RLU) in cell lysates were detected for 10 seconds using Promega GloMax-Multi Detection Luminometer (Promega). Values were normalized to protein content. GraphPad Prism graphing software was used to calculate IC50 values.
Statistical analyses were performed using GraphPad Prism (Version 6.01 for Windows; La Jolla, Calif., USA). Comparisons between treatment and control groups were compared using Two-Way ANOVA with post-hoc Dunnett's and Tukey's tests. Differences were considered statistically significant at P values less than 0.05.
In general terms: A reporter such as luciferase makes a cellular process visible.
`CC(C)(c1ccc(-c2cnc3nc(NS(C)(=O)=O)cnc3c2)cc1)c1cc(Cl)c(OCCCl)c(C#N)c1` [Compound A195]: the IC50 – broadly, the concentration that gives 50% inhibition – was above 2 µM.

With `CC(C)(c1ccc(-c2ccc3c(c2)OCCN3S(C)(=O)=O)cc1)c1cc(Cl)c(OCCCl)c(C#N)c1` [Compound A228], the IC50 is above 2 µM.

Regarding `CC(C)(c1ccc(OCC23CC(CNS(C)(=O)=O)(C2)C3)cc1)c1cc(Cl)c(OCCCl)c(C#N)c1` [Compound A277], the IC50 is below 0.5 µM.

For `CC(C)(c1ccc(OCc2ccnc(NS(C)(=O)=O)n2)cc1)c1cc(Cl)c(NCCCl)c(C#N)c1` [Compound A66], the IC50 fell in the range of 0.5 to 2 µM.

For the molecule `CS(=O)(=O)N1CC2(CN(Cc3ccc4c(ccn4-c4cc(Cl)c(OCCCl)c(C#N)c4)c3)C2)C1` [Compound A241, 3-chloro-2-(2-chloroethoxy)-5-(5-((6-(methylsulfonyl)-2,6-diazaspiro[3.3]heptan-2-yl)methyl)-1H-indol-1-yl)benzonitrile], the IC50 is above 2 µM.

Turning to `CC(C)(c1ccc(OCc2ccnc(NS(C)(=O)=O)n2)cc1)c1cc(F)c(N2CC3(CCC3)C2)c(C#N)c1` [Compound A240, N-(4-((4-(2-(3-cyano-5-fluoro-4-(2-azaspiro[3.3]heptan-2-yl)phenyl)propan-2-yl)phenoxy)methyl)pyrimidin-2-yl)methanesulfonamide], the IC50 was above 2 µM.

For `CS(=O)(=O)N[C@H]1C[C@H](COc2ccc3c(c2)CCC3c2cc(Cl)c(OCCCl)c(C#N)c2)C1` (stereo partly drawn) [Compound A266], the IC50 is 0.5 to 2 µM.

On to `CC(C)COc1c(Cl)cc(-n2ccc3cc(OCc4ccnc(NS(C)(=O)=O)n4)ccc32)cc1C#N` [Compound A71], for which the IC50 is above 2 µM.

Turning to `CC(C)(c1ccc(OCC23CCC(NS(C)(=O)=O)(C2)C3)cc1)c1cc(Cl)c(OCCCl)c(C#N)c1` [Compound A271], the IC50 was in the range of 0.5 to 2 µM.

Regarding `CS(=O)(=O)Nc1nccc(COc2ccc3c(c2)CCN3c2cc(Cl)c(OCCCl)c(C#N)c2)n1` [Compound A30, N-(4-(((1-(3-chloro-4-(2-chloroethoxy)-5-cyanophenyl)indolin-5-yl)oxy)methyl)pyrimidin-2-yl)methanesulfonamide], the IC50 was above 2 µM.

For `CC(C)(c1ccc(OCc2ccnc(NS(C)(=O)=O)n2)cc1)c1cc(F)c(N2CC(O)C2)c(C#N)c1` [Compound A259], the IC50 is below 0.5 µM.

Turning to `CCCOc1ncc(C(C)(C)c2ccc(OCc3ccnc(NS(C)(=O)=O)n3)cc2)cc1Cl` [Compound A104], the IC50 was above 2 µM.

For `CCNc1ncc2cc(-c3ccc(C(C)(C)c4cc(Cl)c(OCCCl)c(C#N)c4)cc3)ccc2n1` [Compound A176], the concentration for half-maximal inhibition (IC50) was above 2 µM.

Consider `CC(C)(c1ccc(-c2cnc3c(c2)CCCC3NS(C)(=O)=O)cc1)c1cc(Cl)c(OCCCl)c(C#N)c1` (stereo not drawn) [Compound A216], for which the IC50 was above 2 µM.

With `CC(C)(c1ccc(-c2ccc3sc(NS(C)(=O)=O)nc3c2)cc1)c1cc(Cl)c(OCCCl)c(C#N)c1` [Compound A275], the IC50 lay in the range of 0.5 to 2 µM.

On to `CC(C)(c1ccc(-c2cnc3c(c2)C(NS(C)(=O)=O)CCC3)cc1)c1cc(Cl)c(OCCCl)c(C#N)c1` (stereo not drawn) [Compound A243], for which the half-maximal inhibitory concentration (IC50) was above 2 µM.

In the case of `CC(C)(c1ccc(-c2ccc3nc(NS(C)(=O)=O)oc3n2)cc1)c1cc(Cl)c(OCCCl)c(C#N)c1` [Compound A282], the IC50 is above 2 µM.

In the case of `Cc1cc(-c2ccc3c(ccn3-c3cc(Cl)c(OCCCl)c(C#N)c3)c2)ccc1CNS(C)(=O)=O` [Compound A168], the IC50 was below 0.5 µM.

Regarding `CS(=O)(=O)NC12CC(CNc3ccc4c(ccn4-c4cc(Cl)c(OCCCl)c(C#N)c4)c3)(C1)C2` [Compound A146], the IC50 is 0.5 to 2 µM.

For the molecule `CS(=O)(=O)Nc1nccc(COc2ccc3c(c2)CC[C@@H]3c2cc(Cl)c(OCCCl)c(C#N)c2)n1` [A35(R)], the IC50 is below 0.5 µM.

For `CS(=O)(=O)N1CC(F)(COc2ccc3c(ccn3-c3cc(Cl)c(OCCCl)c(C#N)c3)c2)C1` [Compound A137], the IC50 fell in the range of 0.5 to 2 µM.

For the molecule `CS(=O)(=O)Nc1ncc(Cn2cc3ccc(-c4cc(Cl)c(OCCCl)c(C#N)c4)cc3n2)cn1` [Compound A160], the IC50 is above 2 µM.

On to `CS(=O)(=O)NC12CC(COc3ccc4c(ccn4-c4cc(Cl)c(OCC(F)(F)F)c(C#N)c4)c3)(C1)C2` [Compound A167], for which the IC50 fell in the range of 0.5 to 2 µM.

`COc1c(Cl)cc(C(C)(C)c2ccc(OCC34CC(NS(C)(=O)=O)(C3)C4)cc2)cc1C#N` [Compound A268]: the IC50 is 0.5 to 2 µM.

In the case of `CS(=O)(=O)Nc1nccc(COc2ccc3c(c2)nnn3-c2cc(Cl)c(OCCCl)c(C#N)c2)n1` [Compound A40], the IC50 is above 2 µM.

On to `CS(=O)(=O)N1CC2CC(Oc3ccc4c(ccn4-c4cc(Cl)c(OCCCl)c(C#N)c4)c3)CC2C1` (stereo not drawn) [Compound A223], for which the IC50 fell in the range of 0.5 to 2 µM.

Take `CC(C)(c1ccc(Oc2cccc3nc(NS(C)(=O)=O)ncc23)cc1)c1cc(Cl)c(OCCCl)c(C#N)c1` [Compound A117]: the IC50 lay in the range of 0.5 to 2 µM.

Consider `CC(C)(c1ccc(OCc2ccnc(NS(C)(=O)=O)n2)cc1)c1cnc(N2CC3(CCC3)C2)c(Cl)c1` [Compound A106], for which the IC50 was above 2 µM.

With `CS(=O)(=O)N1CCC[C@@H](COc2ccc3c(ccn3-c3cc(Cl)c(OCCCl)c(C#N)c3)c2)C1` [Compound A204], the IC50 was above 2 µM.

In the case of `CC(C)(c1ccc(OCc2ncc(NS(C)(=O)=O)nc2N)cc1)c1cc(Cl)c(OCCCl)c(C#N)c1` [Compound A43], the IC50 is below 0.5 µM.

Regarding `CC(C)(c1ccc(OCc2ccnc(NS(C)(=O)=O)n2)cc1)c1cc(Cl)c(OCC(O)CCl)c(C#N)c1` (stereo not drawn) [Compound A258], the IC50 is above 2 µM.

For `CS(=O)(=O)N1CCN(Cc2ccc3c(ccn3-c3cc(Cl)c(OCCCl)c(C#N)c3)c2)CC1` [Compound A123], the IC50 is above 2 µM.

For `CS(=O)(=O)n1cc(COc2ccc3c(ccn3-c3cc(Cl)c(OCCCl)c(C#N)c3)c2)cn1` [Compound A52], the IC50 fell in the range of 0.5 to 2 µM.

As to `CC(C)(c1ccc(-c2c[nH]c3c(NS(C)(=O)=O)ncnc23)cc1)c1cc(Cl)c(OCCCl)c(C#N)c1` [Compound A211], the IC50 was above 2 µM.

As for `CC(C)(c1ccc(-c2ccc3nc(N)ncc3c2)cc1)c1cc(Cl)c(OCCCl)c(C#N)c1` [Compound A177], the IC50 was 0.5 to 2 µM.

Turning to `CS(=O)(=O)N1CCC[C@@H]1COc1ccc2c(ccn2-c2cc(Cl)c(OCCCl)c(C#N)c2)c1` [Compound A224], the IC50 lay in the range of 0.5 to 2 µM.

As for `CS(=O)(=O)Nc1nccc(COc2ccc3c(ccn3-c3cc(Cl)c(OCC(F)(F)F)c(C#N)c3)c2)n1` [Compound A70], the IC50 lay in the range of 0.5 to 2 µM.

For `CC(C)(c1ccc(OCc2nccnc2N)cc1)c1cc(Cl)c(OCCCl)c(C#N)c1` [Compound A95], the IC50 was below 0.5 µM.

In the case of `CC(C)(c1ccc(-c2ccc3nc(NS(C)(=O)=O)nnc3c2)cc1)c1cc(Cl)c(OCCCl)c(C#N)c1` [Compound A108], the IC50 is above 2 µM.

With `CC(C)(c1ccc(OCc2cnc(NS(C)(=O)=O)nc2N2CCNCC2)cc1)c1cc(Cl)c(OCCCl)c(C#N)c1` [Compound A120], the IC50 was below 0.5 µM.

Regarding `CS(=O)(=O)N[C@H]1CC[C@@H](COc2ccc3c(ccn3-c3cc(Cl)c(OCCCl)c(C#N)c3)c2)CC1` [Compound A208], the IC50 was above 2 µM.

Take `CC(C)(c1ccc(OCc2ccnc(NS(C)(=O)=O)n2)cc1)c1cnc(N2CC3(CCC3)C2)c(C#N)c1` [Compound A166]: the IC50 is above 2 µM.

As to `CS(=O)(=O)Nc1nccc(COc2ccc3c(c2)COC3c2cc(Cl)c(OCCCl)c(C#N)c2)n1` (stereo not drawn) [Compound A85], the IC50 is above 2 µM.

Take `CC(C)(c1ccc(-c2cc3cnc(NS(C)(=O)=O)nn3c2)cc1)c1cc(Cl)c(OCCCl)c(C#N)c1` [Compound A263]: the concentration for half-maximal inhibition (IC50) was above 2 µM.

With `CC(C)(c1ccc(-c2ccc3c(NS(C)(=O)=O)ncnc3c2)cc1)c1cc(Cl)c(OCCCl)c(C#N)c1` [Compound A197], the IC50 was above 2 µM.

The values are drawn from patent US20220380378A1 (ESSA Pharma, Inc., priority 2021, published 2022).
